Results published in ChEMBL document CHEMBL4024740, “Isocostunolide inhibited glioma stem cell by suppression proliferation and inducing caspase dependent apoptosis” (Bioorg Med Chem Lett, 2017).
Values after ≈ are worked out from the molar mass of the structure shown. Active and inactive are the calls of the source. The calls are words filed in the database; no cut-off is given here.

Experiments:
GSC3 [1] = assay: Growth inhibition of human GSC3 cells at 10 ug/ml; format: functional, cell-based
GSC12 = assay: Growth inhibition of human GSC12 cells at 10 ug/ml; format: functional, cell-based
GSC18 [2] = assay: Growth inhibition of human GSC18 cells at 10 ug/ml; format: functional, cell-based
[3] = Cytotoxicity against human GSC3 cells after 72 hrs by MTS assay; format: functional, cell-based; settings: GSC-3, 72 h
[4] = Cytotoxicity against human GSC12 cells after 72 hrs by MTS assay; format: functional, cell-based; settings: GSC12, 72 h
[5] = Cytotoxicity against human GSC18 cells after 72 hrs by MTS assay; format: functional, cell-based; settings: GSC18, 72 h
HEK-293T = assay: Cytotoxicity against human 293T cells after 72 hrs by MTS assay; format: cell-based
[6] = Cytotoxicity against human HAC cells after 72 hrs by MTS assay; format: cell-based
GSC3 [7] = assay: Cytotoxicity against human GSC3 cells assessed as suppression of DNA synthesis at 5 ug/ml after 8 hrs by BrdU/DAPI staining based immunofluorescence assay; format: functional, cell-based
GSC18 [8] = assay: Cytotoxicity against human GSC18 cells assessed as suppression of DNA synthesis at 5 ug/ml after 8 hrs by BrdU/DAPI staining based immunofluorescence assay; format: functional, cell-based
GSC3 [9] = assay: Cytotoxicity against human GSC3 cells assessed as cell shrinkage at 5 ug/ml measured after 8 hrs; format: functional, cell-based
GSC18 [10] = assay: Cytotoxicity against human GSC18 cells assessed as cell shrinkage at 5 ug/ml measured after 8 hrs; format: functional, cell-based
GSC3 [11] = assay: Cytotoxicity against human GSC3 cells assessed as cell rounding at 5 ug/ml measured after 8 hrs; format: functional, cell-based
GSC18 [12] = assay: Cytotoxicity against human GSC18 cells assessed as cell rounding at 5 ug/ml measured after 8 hrs; format: functional, cell-based
GSC3 [13] = assay: Cytotoxicity against human GSC3 cells assessed as cell detachment at 5 ug/ml measured after 8 hrs; format: functional, cell-based
GSC18 [14] = assay: Cytotoxicity against human GSC18 cells assessed as cell detachment at 5 ug/ml measured after 8 hrs; format: functional, cell-based
[15] = Induction of apoptosis in human GSC3 cells assessed as viable cells at 1 ug/ml after 8 hrs by Annexin V-FITC/propidium iodide staining based flow cytometric method (reference value: 98.8%); format: functional; settings: GSC-3, 8 h, read-out: Activity
[16] = Induction of apoptosis in human GSC3 cells assessed as early apoptotic cells at 1 ug/ml after 8 hrs by Annexin V-FITC/propidium iodide staining based flow cytometric method (reference value: 0.186%); format: functional
[17] = Induction of apoptosis in human GSC3 cells assessed as late apoptotic cells at 1 ug/ml after 8 hrs by Annexin V-FITC/propidium iodide staining based flow cytometric method (reference value: 0.603%); format: functional
[18] = Induction of apoptosis in human GSC3 cells assessed as late apoptotic cells at 1 ug/ml after 8 hrs by Annexin V-FITC/propidium iodide staining based flow cytometric method (reference value: 0.373%); format: functional
[19] = Induction of apoptosis in human GSC3 cells assessed as viable cells at 2 ug/ml after 8 hrs by Annexin V-FITC/propidium iodide staining based flow cytometric method (reference value: 98.8%); format: functional; settings: GSC-3, 8 h, read-out: Activity
[20] = Induction of apoptosis in human GSC3 cells assessed as early apoptotic cells at 2 ug/ml after 8 hrs by Annexin V-FITC/propidium iodide staining based flow cytometric method (reference value: 0.186%); format: functional
[21] = Induction of apoptosis in human GSC3 cells assessed as late apoptotic cells at 2 ug/ml after 8 hrs by Annexin V-FITC/propidium iodide staining based flow cytometric method (reference value: 0.603%); format: functional
[22] = Induction of apoptosis in human GSC3 cells assessed as late apoptotic cells at 2 ug/ml after 8 hrs by Annexin V-FITC/propidium iodide staining based flow cytometric method (reference value: 0.373%); format: functional
[23] = Induction of apoptosis in human GSC3 cells assessed as viable cells at 5 ug/ml after 8 hrs by Annexin V-FITC/propidium iodide staining based flow cytometric method (reference value: 98.8%); format: functional; settings: GSC-3, 8 h, read-out: Activity
[24] = Induction of apoptosis in human GSC3 cells assessed as early apoptotic cells at 5 ug/ml after 8 hrs by Annexin V-FITC/propidium iodide staining based flow cytometric method (reference value: 0.186%); format: functional
[25] = Induction of apoptosis in human GSC3 cells assessed as late apoptotic cells at 5 ug/ml after 8 hrs by Annexin V-FITC/propidium iodide staining based flow cytometric method (reference value: 0.603%); format: functional
[26] = Induction of apoptosis in human GSC3 cells assessed as late apoptotic cells at 5 ug/ml after 8 hrs by Annexin V-FITC/propidium iodide staining based flow cytometric method (reference value: 0.373%); format: functional
[27] = Induction of apoptosis in human GSC18 cells assessed as viable cells at 1 ug/ml after 8 hrs by Annexin V-FITC/propidium iodide staining based flow cytometric method (reference value: 85.5%); format: functional; settings: GSC18, 8 h, read-out: Activity
[28] = Induction of apoptosis in human GSC18 cells assessed as early apoptotic cells at 1 ug/ml after 8 hrs by Annexin V-FITC/propidium iodide staining based flow cytometric method (reference value: 7.73%); format: functional
[29] = Induction of apoptosis in human GSC18 cells assessed as late apoptotic cells at 1 ug/ml after 8 hrs by Annexin V-FITC/propidium iodide staining based flow cytometric method (reference value: 4.25%); format: functional
[30] = Induction of apoptosis in human GSC18 cells assessed as late apoptotic cells at 1 ug/ml after 8 hrs by Annexin V-FITC/propidium iodide staining based flow cytometric method (reference value: 2.54%); format: functional
[31] = Induction of apoptosis in human GSC18 cells assessed as viable cells at 2 ug/ml after 8 hrs by Annexin V-FITC/propidium iodide staining based flow cytometric method (reference value: 85.5%); format: functional; settings: GSC18, 8 h, read-out: Activity
[32] = Induction of apoptosis in human GSC18 cells assessed as early apoptotic cells at 2 ug/ml after 8 hrs by Annexin V-FITC/propidium iodide staining based flow cytometric method (reference value: 7.73%); format: functional
[33] = Induction of apoptosis in human GSC18 cells assessed as late apoptotic cells at 2 ug/ml after 8 hrs by Annexin V-FITC/propidium iodide staining based flow cytometric method (reference value: 4.25%); format: functional
[34] = Induction of apoptosis in human GSC18 cells assessed as late apoptotic cells at 2 ug/ml after 8 hrs by Annexin V-FITC/propidium iodide staining based flow cytometric method (reference value: 2.54%); format: functional
[35] = Induction of apoptosis in human GSC18 cells assessed as viable cells at 5 ug/ml after 8 hrs by Annexin V-FITC/propidium iodide staining based flow cytometric method (reference value: 85.5%); format: functional; settings: GSC18, 8 h, read-out: Activity
[36] = Induction of apoptosis in human GSC18 cells assessed as early apoptotic cells at 5 ug/ml after 8 hrs by Annexin V-FITC/propidium iodide staining based flow cytometric method (reference value: 7.73%); format: functional
[37] = Induction of apoptosis in human GSC18 cells assessed as late apoptotic cells at 5 ug/ml after 8 hrs by Annexin V-FITC/propidium iodide staining based flow cytometric method (reference value: 4.25%); format: functional
[38] = Induction of apoptosis in human GSC18 cells assessed as late apoptotic cells at 5 ug/ml after 8 hrs by Annexin V-FITC/propidium iodide staining based flow cytometric method (reference value: 2.54%); format: functional
GSC3 [39] = assay: Induction of apoptosis in human GSC3 cells assessed as increase in cleaved caspase-3 at 5 ug/ml after 8 hrs by DAPI staining based immunofluorescence assay; format: functional, cell-based
GSC18 [40] = assay: Induction of apoptosis in human GSC18 cells assessed as increase in cleaved caspase-3 at 5 ug/ml after 8 hrs by DAPI staining based immunofluorescence assay; format: functional, cell-based
GSC3 [41] = assay: Inhibition of colony formation in human GSC3 cells assessed as clonal sphere damage at 5 ug/ml after 10 days by crystal violet staining based assay; format: functional, cell-based
GSC18 [42] = assay: Inhibition of colony formation in human GSC18 cells assessed as clonal sphere damage at 5 ug/ml after 10 days by crystal violet staining based assay; format: functional, cell-based
GSC3 [43] = assay: Inhibition of colony formation in human GSC3 cells assessed as reduction in numbers of clonal sphere at 5 ug/ml after 10 days by crystal violet staining based assay; format: functional, cell-based
GSC18 [44] = assay: Inhibition of colony formation in human GSC18 cells assessed as reduction in numbers of clonal sphere at 5 ug/ml after 10 days by crystal violet staining based assay; format: functional, cell-based

**Q.** Which “growth inhibition (GI)” value (GSC3 [1]) does the source give for `C=C1C(=O)O[C@@H]2/C=C(\C)CCC/C(C)=C/C[C@@H]12` here?
**A.** Active

**Q.** What about the “growth inhibition (GI)” value (GSC12) of the same compound?
**A.** Active

**Q.** What about the “growth inhibition (GI)” value (GSC18 [2]) of the same compound?
**A.** Active

**Q.** And the IC50 [3]?
**A.** 2.8 µg/mL (≈ 12.1 µM)

**Q.** What about the IC50 [4] of the same compound?
**A.** 2.61 µg/mL (≈ 11.2 µM)

**Q.** What about the IC50 [5] of the same compound?
**A.** 1.07 µg/mL (≈ 4.61 µM)

**Q.** What about the IC50 (HEK-293T) of the same compound?
**A.** 7.61 µg/mL (≈ 32.8 µM)

**Q.** What about the IC50 [6] of the same compound?
**A.** 7.42 µg/mL (≈ 31.9 µM)

**Q.** And the Activity (GSC3 [7])?
**A.** Active

**Q.** What about the Activity (GSC18 [8]) of the same compound?
**A.** Active

**Q.** And the Activity (GSC3 [9])?
**A.** Active

**Q.** What about the Activity (GSC18 [10]) of the same compound?
**A.** Active

**Q.** And the Activity (GSC3 [11])?
**A.** Active

**Q.** What about the Activity (GSC18 [12]) of the same compound?
**A.** Active

**Q.** What about the Activity (GSC3 [13]) of the same compound?
**A.** Active

**Q.** What about the Activity (GSC18 [14]) of the same compound?
**A.** Active

**Q.** What about the viability at 1 µg/mL [15] of the same compound?
**A.** 94.7%

**Q.** What about the Activity [16] of the same compound?
**A.** 0.096%

**Q.** What about the Activity [17] of the same compound?
**A.** 0.942%

**Q.** And the Activity [18]?
**A.** 4.3%

**Q.** What about the viability at 2 µg/mL [19] of the same compound?
**A.** 91.4%

**Q.** What about the Activity [20] of the same compound?
**A.** 1.06%

**Q.** And the Activity [21]?
**A.** 3.53%

**Q.** What about the Activity [22] of the same compound?
**A.** 4%

**Q.** What about the viability at 5 µg/mL [23] of the same compound?
**A.** 19.2%

**Q.** And the Activity [24]?
**A.** 3.98%

**Q.** And the Activity [25]?
**A.** 54.3%

**Q.** And the Activity [26]?
**A.** 22.4%

**Q.** What about the viability at 1 µg/mL [27] of the same compound?
**A.** 51.2%

**Q.** And the Activity [28]?
**A.** 1.54%

**Q.** And the Activity [29]?
**A.** 17.3%

**Q.** And the Activity [30]?
**A.** 30%

**Q.** What about the viability at 2 µg/mL [31] of the same compound?
**A.** 57.5%

**Q.** What about the Activity [32] of the same compound?
**A.** 3.28%

**Q.** And the Activity [33]?
**A.** 22.1%

**Q.** What about the Activity [34] of the same compound?
**A.** 17.1%

**Q.** What about the viability at 5 µg/mL [35] of the same compound?
**A.** 39.6%

**Q.** What about the Activity [36] of the same compound?
**A.** 4.1%

**Q.** What about the Activity [37] of the same compound?
**A.** 21.1%

**Q.** And the Activity [38]?
**A.** 35.2%

**Q.** And the Activity (GSC3 [39])?
**A.** Active

**Q.** What about the Activity (GSC18 [40]) of the same compound?
**A.** Active

**Q.** And the inhibition (GSC3 [41])?
**A.** Active

**Q.** What about the inhibition (GSC18 [42]) of the same compound?
**A.** Active

**Q.** What about the inhibition (GSC3 [43]) of the same compound?
**A.** Active

**Q.** What about the inhibition (GSC18 [44]) of the same compound?
**A.** Active
